Experimental data taken from ChEMBL document CHEMBL5260805, “Therapeutic journey of 2,4-thiazolidinediones as a versatile scaffold: An insight into structure activity relationship” (Eur J Med Chem, 2017).
Values after ≈ are worked out from the molar mass of the structure shown.

Key:
Rattus norvegicus [1] = species: Rattus norvegicus; experiment: Antidiabetic activity in Wistar rat assessed as increase in glucose uptake in absence of insulin after 45 mins; type: functional; conditions: 0.75 h
Rattus norvegicus [2] = species: Rattus norvegicus; experiment: Antidiabetic activity in Wistar rat assessed as increase in glucose uptake in presence of insulin after 45 mins; type: functional; conditions: 0.75 h
[3] = molecular target: Human immunodeficiency virus type 1 reverse transcriptase (Human immunodeficiency virus 1) (UniProt Q72547); experiment: Inhibition of HIV-1 reverse transcriptase relative to control; conditions: concentration not given here
[4] = molecular target: Human immunodeficiency virus type 1 reverse transcriptase (Human immunodeficiency virus 1, UniProt Q72547); experiment: Inhibition of HIV-1 reverse transcriptase
Bacillus subtilis = experiment: Antibacterial activity against Bacillus subtilis; type: functional
Escherichia coli [5] = experiment: Antibacterial activity against Escherichia coli; type: functional
Pseudomonas aeruginosa [6] = experiment: Antibacterial activity against Pseudomonas aeruginosa; type: functional
Salmonella typhimurium = experiment: Antibacterial activity against Salmonella typhimurium; type: functional, Salmonella enterica subsp. enterica serovar Typhimurium; conditions: Salmonella enterica
Klebsiella pneumoniae = experiment: Antibacterial activity against Klebsiella pneumoniae; type: functional
Candida albicans = experiment: Antifungal activity against Candida albicans; type: functional
Aspergillus niger [7] = experiment: Antifungal activity against Aspergillus niger; type: functional
[8] = molecular target: Hexokinase-4 (Homo sapiens) (UniProt P35557); experiment: Agonist activity at glucokinase (unknown origin) assessed as fold increase at 10 uM by luciferase reporter gene assay; conditions: filed as agonist
[9] = molecular target: Peroxisome proliferator-activated receptor gamma (Homo sapiens) (UniProt P37231); experiment: Agonist activity at PPARgamma (unknown origin) assessed as fold increase at 10 uM by luciferase reporter gene assay; conditions: filed as agonist
Mus musculus [10] = species: Mus musculus; experiment: Antihyperglycemic activity in sucrose loaded mouse model assessed as decrease in blood glucose level; type: functional; set-up: scale not given: the % may be the effect or the level left
Staphylococcus aureus [11] = experiment: Antibacterial activity against Staphylococcus aureus; type: functional
Rattus norvegicus [12] = species: Rattus norvegicus; experiment: Antidiabetic activity in Wistar rat assessed as reduction in blood glucose level after 120 mins; type: functional; conditions: 2 h
Rattus norvegicus [13] = species: Rattus norvegicus; experiment: Hypolipidemic activity in alloxan induced diabetic rat model assessed as increase in HDL; type: functional
Rattus norvegicus [14] = species: Rattus norvegicus; experiment: Hypolipidemic activity in alloxan induced diabetic rat model assessed as increase in HDL/LDL ratio; type: functional
Mus musculus [15] = species: Mus musculus; experiment: Hypoglycemic activity in KKAY mouse assessed as reduction in blood glucose level; type: functional
Mus musculus [16] = species: Mus musculus; experiment: Hypolipidemic activity in KKAY mouse assessed as reduction in triglyceride level; type: functional
Mus musculus [17] = experiment: Hypoglycemic activity in db/db mouse assessed as reduction in blood glucose level at 30 mg/kg/day, po administered for 6 days; type: functional; set-up: scale not given: the % may be the effect or the level left; conditions: time 6 day
Mus musculus [18] = experiment: Hypolipidemic activity in db/db mouse assessed as reduction in triglyceride level at 30 mg/kg/day, po administered for 6 days; type: functional; set-up: scale not given: the % may be the effect or the level left; conditions: time 6 day
Mus musculus [19] = experiment: Hypoglycemic activity in C57BL/6J db/db mouse assessed as reduction in blood glucose level at 50 mg/kg after 3 days; type: functional; set-up: scale not given: the % may be the effect or the level left; conditions: time 3 day
Mus musculus [20] = experiment: Hypolipidemic activity in C57BL/6J db/db mouse assessed as reduction in triglyceride level at 200 mg/kg; type: functional; set-up: scale not given: the % may be the effect or the level left
[21] = molecular target: Xanthine dehydrogenase/oxidase (Homo sapiens, UniProt P47989); experiment: Inhibition of human milk xanthine oxidase relative to control
Candida parapsilosis = experiment: Antifungal activity against Candida parapsilosis; type: functional; conditions: Lodderomyces parapsilosis
Nakaseomyces glabratus = experiment: Antifungal activity against Candida glabrata; type: functional
Pichia kudriavzevii = experiment: Antifungal activity against Candida krusei; type: functional
Mus musculus [22] = experiment: Hypoglycemic activity in db/db mouse assessed as reduction in blood glucose level at 100 mg/kg/day; type: functional
Staphylococcus aureus [23] = experiment: Antibacterial activity against Staphylococcus aureus ATCC 9144; type: functional
[24] = tested on: Staphylococcus epidermidis; experiment: Antibacterial activity against Staphylococcus epidermidis ATCC-155; type: functional
Escherichia coli [25] = experiment: Antibacterial activity against Escherichia coli ATCC 25922; type: functional
Pseudomonas aeruginosa [26] = experiment: Antibacterial activity against Pseudomonas aeruginosa […]; type: functional
Aspergillus niger [27] = experiment: […] activity against Aspergillus niger ATCC-9029; type: functional
Aspergillus fumigatus = experiment: […] activity against Aspergillus fumigatus ATCC-46645; type: functional
[28] = molecular target: Peroxisome proliferator-activated receptor gamma (Homo sapiens) (UniProt P37231); experiment: Transactivation of PPARgamma (unknown origin) expressed in HEK293 cells at 10 uM after 24 hrs by luminometer assay; type: cell-based; conditions: filed as activator
[29] = Inhibition of bovine lens ALR2; type: tissue-based, Bos taurus
[30] = Inhibition of bacterial peptide deformylase; set-up: species or system Bacteria
Mus musculus [31] = experiment: Hypoglycemic activity in db/db mouse assessed as reduction in blood glucose level at 10 mg/kg; type: functional; set-up: scale not given: the % may be the effect or the level left
Mus musculus [32] = experiment: Hypolipidemic activity in db/db mouse assessed as reduction in triglyceride level at 10 mg/kg; type: functional; set-up: scale not given: the % may be the effect or the level left
[33] = molecular target: Peroxisome proliferator-activated receptor gamma (Homo sapiens, UniProt P37231); experiment: Agonist activity at human PPARgamma transfected in HEK293 cells assessed increase in luciferase activity incubated for 24 hrs; type: cell-based
RAW264.7 = experiment: Inhibition of LPS-induced NO production in mouse RAW264.7 cells; type: functional
[34] = Bacillus subtilis, read-out: MIC

## O=C(CN1C(=O)S/C(=C\c2ccc(Br)cc2)C1=O)Nc1ccc(C(=O)O)cc1
Rattus norvegicus [1]
  Activity: 34.71 mg/dL
Rattus norvegicus [2]
  Activity: 47.65 mg/dL

## Cc1ccc(C)c(/C=C2\SC(=O)N(CCC(=O)Nc3ccccc3O)C2=O)c1
[3]
  inhibition: 73%
[4]
  IC50: 1310 nM
Bacillus subtilis; [34]
  MIC: 6.25 µg/mL (≈ 15.8 µM)
Escherichia coli [5]
  MIC: 6.25 µg/mL (≈ 15.8 µM)
Pseudomonas aeruginosa [6]
  MIC: 6.25 µg/mL (≈ 15.8 µM)
Salmonella typhimurium
  MIC: 6.25 µg/mL (≈ 15.8 µM)
Klebsiella pneumoniae
  MIC: 6.25 µg/mL (≈ 15.8 µM)
Candida albicans
  MIC: 12.5 µg/mL (≈ 31.5 µM)
Aspergillus niger [7]
  MIC: 25 µg/mL (≈ 63.1 µM)

## CC(C)OC(=O)c1ccc(NC(=O)Cc2ccc(/C=C3\SC(=O)NC3=O)cc2[N+](=O)[O-])nc1
[8]
  fold change (FC): 2.9
[9]
  Activity: 48%

## CN(C)C(=N)NC(=N)N [METFORMIN]
Mus musculus [10]
  Activity: -34.1%

## COc1cc(/C=C2\SC(=O)NC2=O)cc(OC)c1OC
Staphylococcus aureus [11]
  MIC: 200 µg/mL (≈ 677 µM)
Escherichia coli [5]
  MIC: 250 µg/mL (≈ 847 µM)

## COc1cc(/C=C2\SC(=O)N(CC(=O)O)C2=O)cc(OC)c1OC
Rattus norvegicus [12]
  Activity: 104 mg/dL

## CN(CCOc1ccc(CC2SC(=O)NC2=O)cc1)Cc1nc(N2CCOCC2)nc(N2CCOCC2)n1 (stereo unspecified)
Rattus norvegicus [13]
  Activity: 3.16%
Rattus norvegicus [14]
  Ratio: 4.02

## CN(CCOc1ccc(CC2SC(=O)NC2=O)cc1)c1ccccn1 (stereo unspecified) [ROSIGLITAZONE]
Rattus norvegicus [1]
  Activity: 36 mg/dL
Rattus norvegicus [2]
  Activity: 50.5 mg/dL
Mus musculus [10]
  Activity: -11.6%
Mus musculus [15]
  ED25: 4.1 mg/kg/day
Mus musculus [16]
  ED25: > 30 mg/kg/day
Mus musculus [17]
  Activity: 65%
Mus musculus [18]
  Activity: 41%

## O=C1NC(=O)C(Cc2ccc(OCCn3ccc4ccccc43)cc2)S1 (stereo unspecified)
Mus musculus [19]
  Activity: 60%
Mus musculus [20]
  Activity: 77%

## CCc1ccc(CCOc2ccc(CC3SC(=O)N(CCCCCCC#N)C3=O)cc2)nc1 (stereo unspecified)
[21]
  inhibition (INH): 72%

## CN(CCOc1ccc(CC2SC(=O)NC2=O)cc1)c1cc(-c2ccccc2)ccn1 (stereo unspecified)
Mus musculus [15]
  ED25: 0.02 mg/kg/day
Mus musculus [16]
  ED25: 2.5 mg/kg/day

## O=C(CN1C(=O)S/C(=C\c2cccc(-c3cc(=O)c4ccccc4o3)c2)C1=O)c1ccc([N+](=O)[O-])cc1
Candida albicans
  MIC: 6.25 µg/mL (≈ 12.2 µM)
Candida parapsilosis
  MIC: 6.25 µg/mL (≈ 12.2 µM)
Nakaseomyces glabratus
  MIC: 6.25 µg/mL (≈ 12.2 µM)
Pichia kudriavzevii
  MIC: 6.25 µg/mL (≈ 12.2 µM)

## Cc1c(C)c2c(c(C)c1OCc1ccccc1)C(CN1CCC[C@H]1COc1ccc(/C=C3\SC(=O)NC3=O)cc1)C(C)(C)O2 (stereo partly specified)
Mus musculus [22]
  Activity: 8 mM

## CCOC(=O)CN1C(=O)SC(Cc2ccc(O)cc2)C1=O (stereo unspecified)
Mus musculus [10]
  Activity: -26.7%

## COC(=O)CN1C(=O)S/C(=C\c2cn(CC(=O)OC)cn2)C1=O
Staphylococcus aureus [23]
  MIC: 3.8 µg/mL (≈ 11.2 µM)
[24]
  MIC: 2.2 µg/mL (≈ 6.48 µM)
Escherichia coli [25]
  MIC: 1.6 µg/mL (≈ 4.72 µM)
Pseudomonas aeruginosa [26]
  MIC: 2.8 µg/mL (≈ 8.25 µM)
Aspergillus niger [27]
  MIC: 7.9 µg/mL (≈ 23.3 µM)
Aspergillus fumigatus
  MIC: 1.7 µg/mL (≈ 5.01 µM)

## COc1cc(Br)cc(CC2SC(=O)NC2=O)c1CC(=O)O (stereo unspecified)
[28]
  Activity: 65%

## O=C(O)CN1C(=O)S/C(=C\c2cccc(Oc3ccccc3)c2)C1=O
[29]
  IC50: 130 nM

## N#Cc1ccccc1-c1ccc(CN2C(=O)S/C(=C\c3c(Cl)cccc3Cl)C2=O)cc1
Bacillus subtilis
  MIC: 100 µg/mL (≈ 215 µM)
Bacillus subtilis; [34]
  MIC: 63.6 µg/mL (≈ 137 µM)
Escherichia coli [5]
  MIC: 63.6 µg/mL (≈ 137 µM)
[30]
  IC50: 132000 nM

## Cc1nn(COc2ccc(CC3SC(=O)NC3=O)cc2)c(=O)c2ccccc12 (stereo unspecified)
Mus musculus [31]
  Activity: 72%
Mus musculus [32]
  Activity: 68%

## COC(=O)/C(=C\c1cc(OC)cc(OC)c1)c1ccc(Oc2ccc(CC3SC(=O)NC3=O)cc2)cc1 (stereo unspecified)
[33]
  EC50: 284 nM

## CCc1ccc(CCOc2ccc(CC3SC(=O)NC3=O)cc2)nc1 (stereo unspecified) [PIOGLITAZONE]
Rattus norvegicus [12]
  Activity: 115 mg/dL
Mus musculus [31]
  Activity: 46.2%
Mus musculus [32]
  Activity: 46.9%

## O=C(CN1C(=O)S/C(=C\c2cccc(-c3cc(=O)c4ccccc4o3)c2)C1=O)c1ccc(F)cc1
Candida albicans
  MIC: 6.25 µg/mL (≈ 12.9 µM)
Candida parapsilosis
  MIC: 6.25 µg/mL (≈ 12.9 µM)
Nakaseomyces glabratus
  MIC: 6.25 µg/mL (≈ 12.9 µM)
Pichia kudriavzevii
  MIC: 6.25 µg/mL (≈ 12.9 µM)

## CC(C)c1ccc(N(C)CCOc2ccc(CC3SC(=O)NC3=O)cc2)cc1 (stereo unspecified)
RAW264.7
  inhibition (INH): 51.5%

## CCc1nc(C)cc(=O)n1CCOc1ccc(CC2SC(=O)NC2=O)cc1 (stereo unspecified)
Mus musculus [17]
  Activity: 73%
Mus musculus [18]
  Activity: 85%

## CCOC(=O)CN1C(=O)SC(Cc2ccc(OC(C)=O)cc2)C1=O (stereo unspecified)
Mus musculus [10]
  Activity: -26.8%

## OC(Cn1cncn1)(Cn1cncn1)c1ccc(F)cc1F [FLUCONAZOLE]
Candida albicans
  MIC: 12.5 µg/mL (≈ 40.8 µM)
Aspergillus niger [7]
  MIC: 12.5 µg/mL (≈ 40.8 µM)

## O=C(O)c1cn(C2CC2)c2cc(N3CCNCC3)c(F)cc2c1=O [CIPROFLOXACIN]
Staphylococcus aureus [11]
  MIC: 0.78 µg/mL (≈ 2.35 µM)
Bacillus subtilis; [34]
  MIC: 0.78 µg/mL (≈ 2.35 µM)
Pseudomonas aeruginosa [6]
  MIC: 0.78 µg/mL (≈ 2.35 µM)
Salmonella typhimurium
  MIC: 0.78 µg/mL (≈ 2.35 µM)

## CC1(C)S[C@@H]2[C@H](NC(=O)[C@H](N)c3ccccc3)C(=O)N2[C@H]1C(=O)O [AMPICILLIN]
Escherichia coli [5]
  MIC: 100 µg/mL (≈ 286 µM)
Candida albicans
  MIC: 500 µg/mL (≈ 1430 µM)
